{"source": "paper PMC4444124", "about": "“The Stapled AKAP Disruptor Peptide STAD-2 Displays Antimalarial Activity through a PKA-Independent Mechanism” (PLoS ONE, 2015)", "key": {"[1]": {"system": "Plasmodium falciparum blood stage parasites", "test": "Dose-response curves (parasitemia by Hoechst flow cytometry)", "format": "cell-based", "description": "Synchronous ring-stage or late-stage iRBC at <0.5% parasitemia were brought up to 4% hematocrit in complete culture medium and transferred to a 24-well tissue culture plate in 1 mL aliquots. […] 25 μL were removed from each well at 0, 24, 48, and 72 hours, stained with 100 μL 2 μg/mL Hoechst 33342 for 10 minutes at 37°C, and analyzed by flow cytometry as described above. IC50 values were determined according to parasitemia at 24 hours post-treatment. Parasitemia was defined as the percent of Hoechst-positive RBCs as measured by flow cytometry."}, "[2]": {"system": "Plasmodium falciparum iRBC", "test": "Parasite viability assay (parasitemia by flow cytometry, Giemsa blood smears)", "format": "cell-based", "conditions": "for morphology of treated iRBC by blood smear: STAD-2 1 μM, H89 30 μM, light microscopy at 48 hours post-treatment, versus DMSO", "description": "25 μL were removed from each well every 24 hours post-treatment, and samples were stained with Hoechst 33342 and analyzed by flow cytometry. Blood smears were made every 24 hours, fixed with methanol, and stained with Giemsa for analysis by light microscopy. Images were acquired using a Nikon Eclipse E400 microscope fitted with a Nikon Digital Sight DS-5M-L1 camera (Nikon Instruments Inc.)."}, "[3]": {"system": "Plasmodium falciparum infected red blood cells (iRBC)", "test": "STAD-2 permeability: uptake of FITC-conjugated peptides by flow cytometry", "format": "cell-based", "procedure": "(§2) Synchronous ring-stage or late-stage infected red blood cells (iRBC) and uninfected red blood cells (uRBC) were brought up to 4% hematocrit in complete culture medium. FITC-conjugated peptides were added to a final concentration of 1 μM, and cultures were incubated for 6 hours at 37°C under standard gas conditions. Following incubation, 25 μL cell mixture was removed and treated with 100 μL 2 μg/mL Hoechst 33342 for 10 minutes at 37°C. Cells were subsequently washed once in 1 mL 1X PBS, resuspended in 300 μL 1X PBS, and analyzed for Hoechst and FITC staining on a Beckman Coulter CyAn flow cytometer. 500,000 events were collected at a rate of 15,000–20,000 events per second. Data was analyzed using FlowJo X single cell analysis software (FlowJo LLC)."}, "late-stage iRBC [4]": {"system": "late-stage iRBC", "test": "Hemolysis (oxyhemoglobin absorbance at 415 nm)", "format": "cell-based, Plasmodium falciparum", "conditions": "late-stage iRBC diluted in uRBC, 0 to 8% parasitemia, 1 μM, 6 hours, versus DMSO, n = 4", "description": "Synchronous late-stage iRBC were mixed with uRBC in order to achieve a series of samples with stepwise decreasing parasitemia. […] The plate was incubated at 37°C under standard gas conditions for 6 hours. Following incubation, all samples were transferred to Eppendorf tubes and centrifuged at 700 rcf for 5 minutes to pellet cells. 100 μL of supernatant was removed from each tube and transferred to a 96-well, flat-bottom tissue culture plate. Oxyhemoglobin absorbance was measured at 415 nm using a SpectraMax Plus microplate spectrophotometer with SoftMax Pro 5.4 software (Molecular Devices, LLC)."}, "PfPKA-R": {"system": "PfPKA-R", "test": "Immunofluorescence assay, colocalization with PKA regulatory subunit", "format": "cell-based, Plasmodium falciparum", "conditions": "late-stage iRBC, 1 μM FITC-conjugated peptide, 2 hours, anti-PfPKA R antibody", "description": "(§1) A culture of primarily late-stage iRBC was incubated with STAD-2 or DMSO as described above. Following incubation, 50 μL of cell mixture was removed and washed twice with 1 mL 1X PBS. Cells were then resuspended in 200 μL 4% paraformaldehyde/0.0075% glutaraldehyde and transferred to a CC2 glass chamber slide (Nalge Nunc International). Cells were fixed for 30 minutes at room temperature and gently washed twice with 300 μL 1X PBS. Fixed cells were subsequently permeabilized with 0.1% Triton X-100/PBS for 10 minutes and washed. Cells were then treated with […] sodium borohydride/PBS for 10 minutes to reduce any free aldehyde groups, washed with 1X PBS, and blocked for 1 hour at room temperature with 3% BSA/PBS. Following blocking, cells were brought up in 200 μL primary antibody and left shaking at 4°C overnight. The following morning, cells were washed three times, for 10 minutes each, to remove excess primary antibody and brought up in 200 μL secondary antibody for 1 hour at room temperature. After washing, cells were counterstained with 200 μL 0.5 μg/mL Hoechst 33342 for 3 minutes at room temperature and washed a final time before removing slide chambers, mounting a coverslip with Fluoro-Gel, and sealing. Rat anti-PfPKA-R was generously donated by Gordon Langsley (Institut Cochin) and diluted 1:300 in 3% BSA/PBS. Goat anti-HsPKA-RII (Abcam) was diluted to 10 μg/mL in 3% BSA/PBS. […]"}, "HsPKA-RII": {"system": "HsPKA-RII", "test": "Immunofluorescence assay, colocalization with PKA regulatory subunit", "format": "cell-based, H. sapiens", "conditions": "late-stage iRBC, 1 μM FITC-conjugated peptide, 2 hours, anti-HsPKA RII antibody", "description": "as §1"}, "late-stage iRBC [5]": {"system": "late-stage iRBC", "description": "Late-stage cultures were brought up to 4% hematocrit in complete culture medium and transferred to a 48-well tissue culture plate at 250 μL per well. Plates were spun at 330 rcf for 5 minutes, the medium was aspirated, and cultures were resuspended in either 250 μL complete culture medium or 200 μM furosemide in complete culture medium for 10 minutes at 37°C. Plates were again spun at 330 rcf, aspirated, and resuspended in 250 μL 1 μM STAD-2, 5% D-Sorbitol, 200 μM furosemide, 130 mM glycerol, 6 μM AgNO3, or a combination of the aforementioned for 10 minutes or 2 hours. Following incubation, 25 μL were removed, stained, and analyzed by flow cytometry as described above. Ten-minute time points served as controls for 5% D-Sorbitol and furosemide activities while effects on STAD-2 uptake were determined using 2-hour time points."}, "[6]": {"target": "T1, cytoadherence linked asexual protein 3.1, or CLAG3 (Plasmodium falciparum, UniProt O77310)", "T1 construct": "4 X 10^8 3D7 parasites were lysed with cold 0.04% saponin in PBS; endogenous in cells; host or cells: P. falciparum 3D7 parasites (parasite supernatant of lysate)", "T1 sequence (O77310 25-1417)": "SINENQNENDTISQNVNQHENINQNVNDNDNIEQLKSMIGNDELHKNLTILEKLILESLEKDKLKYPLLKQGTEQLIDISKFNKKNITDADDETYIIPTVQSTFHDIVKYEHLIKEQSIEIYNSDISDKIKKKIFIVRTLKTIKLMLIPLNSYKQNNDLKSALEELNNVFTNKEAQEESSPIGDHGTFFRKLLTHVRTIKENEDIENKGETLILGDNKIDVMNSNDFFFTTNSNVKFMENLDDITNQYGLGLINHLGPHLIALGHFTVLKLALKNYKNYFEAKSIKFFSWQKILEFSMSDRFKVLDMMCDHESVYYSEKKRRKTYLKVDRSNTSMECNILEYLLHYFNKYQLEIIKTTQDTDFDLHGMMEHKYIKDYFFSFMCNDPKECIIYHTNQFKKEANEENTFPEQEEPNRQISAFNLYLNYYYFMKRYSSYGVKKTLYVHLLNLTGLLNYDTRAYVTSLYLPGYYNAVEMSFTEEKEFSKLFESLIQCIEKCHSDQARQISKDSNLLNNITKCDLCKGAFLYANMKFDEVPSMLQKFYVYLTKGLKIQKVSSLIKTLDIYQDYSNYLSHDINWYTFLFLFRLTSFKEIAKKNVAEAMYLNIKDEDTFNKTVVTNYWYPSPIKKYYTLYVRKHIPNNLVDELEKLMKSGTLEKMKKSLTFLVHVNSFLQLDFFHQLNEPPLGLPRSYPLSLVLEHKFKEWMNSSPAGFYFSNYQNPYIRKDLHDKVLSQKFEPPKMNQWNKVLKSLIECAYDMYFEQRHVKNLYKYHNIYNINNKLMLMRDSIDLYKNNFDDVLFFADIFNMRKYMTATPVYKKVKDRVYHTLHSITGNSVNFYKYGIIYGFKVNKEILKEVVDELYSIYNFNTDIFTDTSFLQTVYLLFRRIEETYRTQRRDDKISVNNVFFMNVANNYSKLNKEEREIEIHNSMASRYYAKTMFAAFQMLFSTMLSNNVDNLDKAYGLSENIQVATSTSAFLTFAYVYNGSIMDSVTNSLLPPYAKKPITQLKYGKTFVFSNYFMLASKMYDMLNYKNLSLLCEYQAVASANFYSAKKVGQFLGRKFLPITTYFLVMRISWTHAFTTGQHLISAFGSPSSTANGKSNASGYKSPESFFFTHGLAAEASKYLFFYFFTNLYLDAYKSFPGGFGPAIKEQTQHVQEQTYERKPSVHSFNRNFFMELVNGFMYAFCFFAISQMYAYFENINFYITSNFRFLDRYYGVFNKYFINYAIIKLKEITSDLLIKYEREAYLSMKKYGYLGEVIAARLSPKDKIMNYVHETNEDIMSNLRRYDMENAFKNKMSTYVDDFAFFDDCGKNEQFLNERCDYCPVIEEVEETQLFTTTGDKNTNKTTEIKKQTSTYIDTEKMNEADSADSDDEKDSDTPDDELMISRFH", "test": "Immunoprecipitation/mass spectrometry with biotin-conjugated peptide", "format": "binding", "conditions": "3D7 parasite supernatant, 16 hours at 4°C, streptavidin beads, MS-MS (S2 Table)", "description": "4 X 10^8 3D7 parasites were lysed with cold 0.04% saponin in PBS for 10 minutes. The supernatant was, subsequently, separated from the pellet by centrifugation at 4000 rcf for 10 minutes at 4°C. This supernatant consisted of the RBC cytoplasm and parasite exported proteins (termed host supernatant). The pellet consisted of parasite cells; these were further lysed with […]. The soluble fraction (termed parasite supernatant) of the parasite cells was separated from the insoluble fraction by centrifuging the parasite lysate at 4000 rcf for 10 minutes at 4°C. The host supernatant and the parasite supernatant were each incubated with biotin-conjugated STAD-2 or STAD-2 scramble for 16 hours at 4°C. Peptide-protein complexes were precipitated using streptavidin-coupled Dynabeads (Life Technologies). Dynabeads were subsequently washed four times with 1X PBS, and the precipitated peptide-protein complexes were solubilized in SDS-PAGE sample buffer. Proteins were, then, fractionated on 10% SDS-PAGE, excised, and identified by MS-MS (Proteomics and Mass Spectrometry Core Facility, University of Georgia).\nSequences identified by MS-MS were searched against the NCBI non-redundant protein databases for Plasmodium falciparum (NCBI taxonomy #5833) and human (#9606)/Plasmodium (#5820) and analyzed by Mascot. Results from both database searches were cross-referenced and compiled. […]"}, "[7]": {"system": "uninfected red blood cells (uRBC)", "conditions": "1 μM FITC-conjugated peptide, 6 hours, 37°C, 4% hematocrit, Hoechst/FITC flow cytometry", "procedure": "as §2"}}, "note": "pIC50: −log10 of the molar value. Values joined by “and” are separate entries in the source; they are usually repeats but may differ in a detail not shown here. Equal values may be shown once.", "data": [{"smiles": "O=S(=O)(NCCNC/C=C/c1ccc(Br)cc1)c1cccc2cnccc12", "note": "[H89]", "values": [{"measurement": "pIC50", "setting": "[1]; late-stage CS2 parasites, serial dilutions 100-0.78 μM, 24 hours, Hoechst flow cytometry, n = 2 (S5 Fig), read-out: H89 in vitro IC50", "result": "4.52 and ~4.52"}, {"measurement": "morphology of treated iRBC by blood smear", "setting": "[2]; late-stage iRBC", "result": "clear morphological changes including the notable absence of a digestive vacuole"}]}, {"smiles": "CC(C)C[C@H](NC(=O)[C@H](C)NC(=O)[C@]1(C)CCCC=CCCC[C@](C)(NC(=O)[C@H](CO)NC(=O)[C@@H](NC(=O)[C@H](CC(C)C)NC(=O)[C@H](Cc2ccccc2)NC(=O)[C@H](CCCCN)NC(=O)[C@H](C)NC(=O)[C@H](CC(C)C)NC(=O)[C@H](CCCCN)NC(=O)[C@H](CCCCN)NC(=O)CCNC(=S)Nc2ccc3c(c2)C(=O)OC32c3ccc(O)cc3Oc3cc(O)ccc32)C(C)C)C(=O)N[C@@H](C)C(=O)N[C@@H](CC(C)C)C(=O)N[C@@H](CCCCN)C(=O)N1)C(=O)N[C@@H](CCCCN)C(N)=O", "note": "[STAD-2]", "values": [{"measurement": "uptake by synchronous ring-stage and late-stage iRBC", "setting": "[3]; 1 μM FITC-conjugated peptide, 6 hours, flow cytometry, 2way ANOVA p<0.001, n = 3-6", "result": "significantly increased uptake"}, {"measurement": "permeability in iRBC", "setting": "[3]; CS2 iRBC, 1 μM FITC-conjugated peptide, 6 hours, 37°C, 4% hematocrit, Hoechst/FITC flow cytometry", "result": "significant permeability"}, {"measurement": "permeability to iRBC among stapled peptides (median fluorescence intensity)", "setting": "[3]; iRBC, 1 μM stapled FITC-conjugated peptides, 6 hours, flow cytometry, n = 2-6 (Fig 7)", "result": "clearly permeable"}, {"measurement": "permeability across parasite strains", "setting": "[3]; late-stage CS2, Dd2, 3D7, Hb3 iRBC, 1 μM FITC-conjugated peptide, 2 hours, flow cytometry, n = 2 (S1 Fig)", "result": "comparable levels of permeability"}, {"measurement": "time to near-maximum levels of uptake", "setting": "[3]; late-stage iRBC, 1 μM FITC-conjugated peptide for 1, 2, 3 or 6 hours, flow cytometry, n = 3 (S2 Fig)", "result": "≤ 3", "unit": "h"}, {"measurement": "effect on parasitemia relative to DMSO-treated controls, dose-response", "setting": "[1]; ring- and late-stage iRBC, 0, 0.5, 1, 2, 5 μM, 24 hours post-treatment, n = 3", "result": "concentration-dependent decrease in parasitemia"}, {"measurement": "viability of P. falciparum strains", "setting": "[2]; late-stage CS2, 3D7, Dd2, Hb3, 1 μM FITC-conjugated peptide, parasitemia at 24, 48, 72 hours, n = 3 (S3 Fig)", "result": "reduced viability in CS2, Dd2, and Hb3 strains"}, {"measurement": "parasitemia 6 hours post-treatment", "setting": "[2]; late-stage iRBC, 1 μM FITC-conjugated peptide, 6 hours, flow cytometry, n = 7 (S4 Fig)", "result": "Reduction in parasitemia was evident"}, {"measurement": "morphology of treated iRBC by blood smear", "setting": "[2]; late-stage iRBC", "result": "did not differ morphologically from DMSO controls"}, {"measurement": "parasitemia relative to DMSO controls over 72 hours", "setting": "[2]; synchronous ring- and late-stage iRBC, 1 μM, flow cytometry every 24 hours for 72 hours, significant by 48 hours (p<0.001), n = 3", "result": "significantly decreased parasitemias"}, {"measurement": "iRBC lysis (oxyhemoglobin A415 in medium)", "setting": "late-stage iRBC [4]", "result": "significantly greater than controls"}, {"measurement": "colocalization with PfPKA-R", "setting": "PfPKA-R", "result": "did not definitively colocalize"}, {"measurement": "colocalization with HsPKA-RII", "setting": "HsPKA-RII", "result": "did not definitively colocalize"}, {"measurement": "STAD-2 uptake, co-incubation with AgNO3", "setting": "late-stage iRBC [5]; 1 μM STAD-2 + 6 μM AgNO3 (AQP1 inhibitor), 2 hours, flow cytometry, n = 2", "result": "no apparent change in STAD-2 uptake"}, {"measurement": "STAD-2 uptake, co-treatment with furosemide alone", "setting": "late-stage iRBC [5]; 1 μM STAD-2 + 200 μM furosemide (PSAC inhibitor), 2 hours, pre-treatment with medium, flow cytometry, n = 3", "result": "no discernible effect on STAD-2 uptake"}, {"measurement": "STAD-2 uptake, co-incubation with glycerol", "setting": "late-stage iRBC [5]; 1 μM STAD-2 + 130 mM glycerol (AQP3 solute), 2 hours, flow cytometry, n = 2", "result": "no apparent change in STAD-2 uptake"}, {"measurement": "STAD-2 uptake, co-incubation with D-Sorbitol", "setting": "late-stage iRBC [5]; 1 μM STAD-2 + 5% D-Sorbitol (PSAC solute), 2 hours, flow cytometry, n = 2", "result": "slight reduction of STAD-2 uptake"}, {"measurement": "STAD-2 uptake, furosemide pre-incubation then co-treatment", "setting": "late-stage iRBC [5]; 200 μM furosemide 10 minutes pre-incubation, then 1 μM STAD-2 + 200 μM furosemide 2 hours, p = 0.0557, n = 3", "result": "consistent but statistically insignificant decrease"}, {"measurement": "association with CLAG3 by IP/MS", "setting": "[6]", "result": "showed association"}, {"measurement": "permeability in uRBC", "setting": "[7]", "result": "only a nominal amount"}]}]}
